Test results published in PMC6572189, “Functional Fragments of AIMP1-Derived Peptide (AdP) and Optimized Hydrosol for Their Topical Deposition by Box-Behnken Design” (Molecules, 2019).

Assays:
[1] = system: Foreskin fibroblasts (HFF-1); assay: Collagen ELISA (procollagen type I in culture media); assay type: cell-based; conditions: Fr3 0.1 μg/mL versus EGF 1 μg/mL, HFF-1 foreskin fibroblasts, 24 h
Method: (§1) Figure 1 Fibroblast-activating (FA) and melanin-inhibiting (MI) domain mapping of AIMP1-derived peptide (AdP): (a) Foreskin fibroblasts were treated with EGF (1 μg/mL), AdP (0.1 μg/mL), and fragments of AdP (Fr1–Fr6; 0.1 μg/mL). After 24 h incubation, procollagen type I was determined in cultured media by ELISA; (b) after 48 h incubation, CCK8-assay was performed to monitor the proliferation of foreskin fibroblasts; (c) melanocytes, pre-treated with α-MSH (0.5 μM), were treated with albutin (At, 10 μM), AdP (1 μg/mL) and fragments of AdP (Fr1–Fr6, 1 μg/mL). After 48 h incubation, intracellular melanin was measured.
Foreskin fibroblast cells (HFF-1; 5 × 10^4 cells/well) were seeded at a 24-well culture plate. Before peptide treatment, cells were pre-incubated with serum-free DMEM media for 6 h. Cells were treated with AdP, hEGF (Sigma-Aldrich, St. Louis, MO, USA) and fragments of AdP for 24 h. After 24 h treatment, media were harvested for collagen ELISA assay. Procollagen type I in the culture media was determined by Procollagen type I ELISA kit (Takara, Kusatsu, Japan) in accordance with the manufacturer instructions. Procollagen type I amount in the media was normalized by the Procollagen type I amount of control group.

[2] = system: Foreskin fibroblasts (HFF-1); assay: Fibroblast proliferation assay (CCK-8); assay type: cell-based; conditions: Fr3 0.1 μg/mL versus EGF 1 μg/mL; HFF-1 foreskin fibroblasts, 48 h, CCK-8 assay
Method: as §1
Foreskin fibroblast cells (HFF-1; 3 × 10^3 cells/well) were seeded into 96-well plate and cultivated. Cells were replaced with serum-free media and then treated with AdP, hEGF, and fragments of AdP for 48 h. Cell proliferation was determined CCK-8 assay (Dojindo, Kumamoto, Japan) in accordance with the manufacturer instructions. Proliferation was normalized by the proliferation of control group.

[3] = system: keratinocytes (HaCaT cells); assay: Cytotoxicity test (CCK-8); assay type: cell-based; conditions: 10 or 100 μg/mL (up to 100 μg/mL), 24 h, CCK-8 assay, n = 3
Method: (§2) Figure 2 Non-cytotoxicity and non-immunogenicity of FA-AdP and MI-AdP: (a) To test cytotoxicity of FA-AdP and MI-AdP, keratinocytes (HaCaT cells) were incubated with doxorubicin (Dox, 10 μM), AdP (100 μg/mL), FA-AdP (10 or 100 μg/mL), and MI-AdP (10 or 100 μg/mL). After 24 h incubation, cytotoxicity was determined by CCK-8 assay; (b) for the immunogenicity test, monocytes (THP-1 cells) were used. After 12 h incubation with LPS (50 ng/mL), AdP (100 μg/mL), FA-AdP (10 or 100 μg/mL), and MI-AdP (10 or 100 μg/mL), the TNF-α level was measured in cultured media by ELISA.
(§3) The safety of FA-AdP and MI-AdP was verified in terms of cytotoxicity and immunogenicity. To test the cytotoxicity of the peptides, keratinocytes (HaCaT; 3 × 10^3 cells/well) were seeded into 96-well plate and cultivated. Cells were incubated with doxorubicin (Dox, 10 μM), AdP (100 μg/mL), FA-AdP (10 or 100 μg/mL), or MI-AdP (10 or 100 μg/mL). After 24 h incubation, cytotoxicity was determined by CCK-8 assay (Dojindo) according to the manufacturer’s manual. The immunogenicity of the peptides was evaluated by performing TNF-α ELISA. THP-1 cells (5 × 10^4 cells/well) were seeded on a 24-well plate. Cells were pre-incubated with 1% FBS containing media for 6 h. […] TNF-α amount in conditioned media was assessed by human TNF-α ELISA kit (BD Bioscience, San Jose, CA, USA) in accordance with the manufacturer instructions. […]

monocytes (THP-1 cells) = assay: Immunogenicity test (TNF-α ELISA); assay type: cell-based, human; conditions: 10 or 100 μg/mL, 12 h, TNF-α ELISA of cultured media, normalized to control, n = 3
Method: as §2, §3

Melanocytes (B16F10) = assay: Measurement of intracellular melanin in α-MSH induced melanocytes; assay type: cell-based; conditions: α-MSH 0.5 μM, 48 h
Method: as §1
Melanocytes (B16F10; 1 × 10^5 cells/well) were seeded into 6-well plate and cultivated. To induce melanin synthesis, α-MSH (0.5 μM), melanin inducer, was used. AdP and fragments of AdP were treated with α-MSH (0.5 μM) for 48 h. Intracellular melanin and tyrosinase activity were monitored as previously reported. Briefly, melanocytes (1 × 10^5 cells,) were lysed with 1 N NaOH at 70 °C for 1 h. Intracellular melanin was determined in lysed samples by 490 nm wavelength absorbance using microplate reader (Synergy 2, BioTek, Winooski, VM, USA).

Fr3: 14–28 residue fragment of AIMP1; fibroblast-activating domain of AdP (KGAEADQIIEYLKQQ; UniProt Q12904 14-28, looked up, fragment)
collagen induction, more potent than EGF [1]: 15% | fibroblast proliferation, more potent than EGF [2]: 10% | cytotoxicity in keratinocytes [3]: no cytotoxicity | TNF-α level compared with that of the control group (monocytes (THP-1 cells)): no significant difference

Fr4: 18–32 residue fragment of AIMP1; melanocyte-inhibiting domain of AdP (ADQIIEYLKQQVSLL; UniProt Q12904 18-32, looked up, fragment)
inhibition effect on melanin synthesis, higher than albutin (Melanocytes (B16F10); Fr4 1 μg/mL versus albutin 10 μM): 35% | inhibition of melanin synthesis induced by α-MSH, compared with AdP (Melanocytes (B16F10); 1 μg/mL, intracellular melanin by absorbance at 490 nm, mean n = 3, versus AdP 1 μg/mL): comparable inhibition | cytotoxicity in keratinocytes [3]: no cytotoxicity | TNF-α level compared with that of the control group (monocytes (THP-1 cells)): no significant difference
